Results from PubChem BioAssay (NCI).
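In this assay, cells in 96-well plates receive the compound at five concentrations for 48 hours. Endpoints are linearly interpolated between the surrounding concentrations. TGI is the concentration that stops growth completely.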

Assays:
Test in all cases: inhibition of tumour cell growth, NCI panel, 48 h
T-47D breast = tested on: T-47D breast
OVCAR-5 ovarian = tested on: OVCAR-5 ovarian
MCF7 breast = tested on: MCF7 breast
TK-10 renal = tested on: TK-10 renal
UACC-62 melanoma = tested on: UACC-62 melanoma
HOP-62 NSCLC = tested on: HOP-62 NSCLC
LOX IMVI melanoma = tested on: LOX IMVI melanoma
SW-620 colon = tested on: SW-620 colon
HCT-116 colon = tested on: HCT-116 colon
HS 578T breast = tested on: HS 578T breast
M14 melanoma = tested on: M14 melanoma
HCC-2998 colon = tested on: HCC-2998 colon
SF-539 CNS = tested on: SF-539 CNS
MDA-MB-231 breast = tested on: MDA-MB-231 breast
UO-31 renal = tested on: UO-31 renal
786-0 renal = tested on: 786-0 renal
RXF 393 renal = tested on: RXF 393 renal
CAKI-1 renal = tested on: CAKI-1 renal
OVCAR-4 ovarian = tested on: OVCAR-4 ovarian
SK-MEL-2 melanoma = tested on: SK-MEL-2 melanoma
OVCAR-3 ovarian = tested on: OVCAR-3 ovarian
SNB-75 CNS = tested on: SNB-75 CNS
DU-145 prostate = tested on: DU-145 prostate
K-562 leukemia = tested on: K-562 leukemia
UACC-257 melanoma = tested on: UACC-257 melanoma
SK-MEL-28 melanoma = tested on: SK-MEL-28 melanoma
EKVX NSCLC = tested on: EKVX NSCLC
SN12C renal = tested on: SN12C renal
HOP-92 NSCLC = tested on: HOP-92 NSCLC
A549 NSCLC = tested on: A549 NSCLC
RPMI-8226 leukemia = tested on: RPMI-8226 leukemia
HCT-15 colon = tested on: HCT-15 colon
NCI-H226 lung = tested on: NCI-H226 lung
U251 CNS = tested on: U251 CNS
PC-3 prostate = tested on: PC-3 prostate
KM12 colon = tested on: KM12 colon
NCI/ADR-RES ovarian = tested on: NCI/ADR-RES ovarian
A498 renal = tested on: A498 renal
SK-OV-3 ovarian = tested on: SK-OV-3 ovarian
SF-268 CNS = tested on: SF-268 CNS
SK-MEL-5 melanoma = tested on: SK-MEL-5 melanoma
ACHN renal = tested on: ACHN renal
MDA-MB-435 = tested on: MDA-MB-435
MDA-N = tested on: MDA-N
CCRF-CEM leukemia = tested on: CCRF-CEM leukemia
SNB-19 CNS = tested on: SNB-19 CNS
SF-295 CNS = tested on: SF-295 CNS
HT29 colon = tested on: HT29 colon
SR leukemia = tested on: SR leukemia
OVCAR-8 ovarian = tested on: OVCAR-8 ovarian
COLO 205 colon = tested on: COLO 205 colon
NCI-H460 lung = tested on: NCI-H460 lung
MOLT-4 leukemia = tested on: MOLT-4 leukemia
NCI-H522 lung = tested on: NCI-H522 lung
HL-60(TB) leukemia = tested on: HL-60(TB) leukemia
NCI-H23 lung = tested on: NCI-H23 lung
MALME-3M melanoma = tested on: MALME-3M melanoma
IGROV1 ovarian = tested on: IGROV1 ovarian

CC1(C)[C@@H](Cn2nnc3c(N)ncnc32)CC[C@@]1(C)CO
TGI (T-47D breast): > 100 µM
TGI (OVCAR-5 ovarian): > 100 µM
TGI (MCF7 breast): > 100 µM
TGI (TK-10 renal): > 100 µM
TGI (UACC-62 melanoma): > 100 µM
TGI (HOP-62 NSCLC): > 100 µM
TGI (LOX IMVI melanoma): > 100 µM
TGI (SW-620 colon): > 100 µM
TGI (HCT-116 colon): > 100 µM
TGI (HS 578T breast): > 100 µM
TGI (M14 melanoma): > 100 µM
TGI (HCC-2998 colon): 29 µM
TGI (SF-539 CNS): > 100 µM
TGI (MDA-MB-231 breast): > 100 µM
TGI (UO-31 renal): > 100 µM
TGI (786-0 renal): > 100 µM
TGI (RXF 393 renal): > 100 µM
TGI (CAKI-1 renal): > 100 µM
TGI (OVCAR-4 ovarian): > 100 µM
TGI (SK-MEL-2 melanoma): > 100 µM
TGI (OVCAR-3 ovarian): > 100 µM
TGI (SNB-75 CNS): > 100 µM
TGI (DU-145 prostate): > 100 µM
TGI (K-562 leukemia): > 100 µM
TGI (UACC-257 melanoma): > 100 µM
TGI (SK-MEL-28 melanoma): > 100 µM
TGI (EKVX NSCLC): > 100 µM
TGI (SN12C renal): > 100 µM
TGI (HOP-92 NSCLC): > 100 µM
TGI (A549 NSCLC): > 100 µM
TGI (RPMI-8226 leukemia): > 100 µM
TGI (HCT-15 colon): > 100 µM
TGI (NCI-H226 lung): > 100 µM
TGI (U251 CNS): > 100 µM
TGI (PC-3 prostate): > 100 µM
TGI (KM12 colon): > 100 µM
TGI (NCI/ADR-RES ovarian): > 100 µM
TGI (A498 renal): > 100 µM
TGI (SK-OV-3 ovarian): > 100 µM
TGI (SF-268 CNS): > 100 µM
TGI (SK-MEL-5 melanoma): > 100 µM
TGI (ACHN renal): > 100 µM
TGI (MDA-MB-435): > 100 µM
TGI (MDA-N): > 100 µM
TGI (CCRF-CEM leukemia): > 100 µM
TGI (SNB-19 CNS): > 100 µM
TGI (SF-295 CNS): > 100 µM

CC1=C(C#N)C2C(=C(C)N1)C(N)=Nc1ccccc12 (stereo not given)
TGI (T-47D breast): > 100 µM
TGI (OVCAR-5 ovarian): > 100 µM
TGI (MCF7 breast): > 100 µM
TGI (TK-10 renal): > 100 µM
TGI (UACC-62 melanoma): > 100 µM
TGI (HOP-62 NSCLC): > 100 µM
TGI (LOX IMVI melanoma): > 100 µM
TGI (SW-620 colon): > 100 µM
TGI (HCT-116 colon): > 100 µM
TGI (HS 578T breast): 74.7 µM
TGI (M14 melanoma): > 100 µM
TGI (HCC-2998 colon): > 100 µM
TGI (HT29 colon): > 100 µM
TGI (SR leukemia): > 100 µM
TGI (SF-539 CNS): > 100 µM
TGI (MDA-MB-231 breast): > 100 µM
TGI (786-0 renal): > 100 µM
TGI (RXF 393 renal): > 100 µM
TGI (CAKI-1 renal): > 100 µM
TGI (OVCAR-8 ovarian): > 100 µM
TGI (OVCAR-4 ovarian): > 100 µM
TGI (COLO 205 colon): > 100 µM
TGI (SK-MEL-2 melanoma): > 100 µM
TGI (NCI-H460 lung): > 100 µM
TGI (MOLT-4 leukemia): > 100 µM
TGI (OVCAR-3 ovarian): > 100 µM
TGI (SNB-75 CNS): 44.1 µM
TGI (DU-145 prostate): > 100 µM
TGI (UACC-257 melanoma): > 100 µM
TGI (SK-MEL-28 melanoma): > 100 µM
TGI (EKVX NSCLC): 89.4 µM
TGI (NCI-H522 lung): > 100 µM
TGI (SN12C renal): > 100 µM
TGI (HOP-92 NSCLC): 62.2 µM
TGI (A549 NSCLC): > 100 µM
TGI (HCT-15 colon): > 100 µM
TGI (NCI-H226 lung): 93.8 µM
TGI (PC-3 prostate): 70.8 µM
TGI (KM12 colon): > 100 µM
TGI (NCI/ADR-RES ovarian): > 100 µM
TGI (HL-60(TB) leukemia): 81.6 µM
TGI (A498 renal): 97.8 µM
TGI (SK-OV-3 ovarian): > 100 µM
TGI (SF-268 CNS): > 100 µM
TGI (SK-MEL-5 melanoma): > 100 µM
TGI (ACHN renal): > 100 µM
TGI (MDA-N): > 100 µM
TGI (CCRF-CEM leukemia): > 100 µM
TGI (SNB-19 CNS): > 100 µM
TGI (NCI-H23 lung): > 100 µM
TGI (MALME-3M melanoma): > 100 µM
TGI (IGROV1 ovarian): 95.6 µM
TGI (SF-295 CNS): > 100 µM
